Laboratory results from ChEMBL document CHEMBL5465560, “Selectivity Literature for EUbOPEN Chemogenomic Library” (2024).

Legend:
[1] = molecular target: Tyrosine-protein kinase ABL2 (Homo sapiens, UniProt P42684); settings: at 10 µM
[2] = molecular target: Mitogen-activated protein kinase kinase kinase 4 (Homo sapiens) (UniProt Q9Y6R4); assay: Selectivity interaction (KinomeScan (DiscoverX)) EUB0000229b MAP3K4; settings: at 10 µM
[3] = molecular target: T1, Mitogen-activated protein kinase kinase kinase 15 (Homo sapiens) (UniProt Q6ZN16); assay: Selectivity interaction (KinomeScan (DiscoverX)) EUB0001079a MAP3K15; settings: at 1 µM
T1 sequence (whole entry): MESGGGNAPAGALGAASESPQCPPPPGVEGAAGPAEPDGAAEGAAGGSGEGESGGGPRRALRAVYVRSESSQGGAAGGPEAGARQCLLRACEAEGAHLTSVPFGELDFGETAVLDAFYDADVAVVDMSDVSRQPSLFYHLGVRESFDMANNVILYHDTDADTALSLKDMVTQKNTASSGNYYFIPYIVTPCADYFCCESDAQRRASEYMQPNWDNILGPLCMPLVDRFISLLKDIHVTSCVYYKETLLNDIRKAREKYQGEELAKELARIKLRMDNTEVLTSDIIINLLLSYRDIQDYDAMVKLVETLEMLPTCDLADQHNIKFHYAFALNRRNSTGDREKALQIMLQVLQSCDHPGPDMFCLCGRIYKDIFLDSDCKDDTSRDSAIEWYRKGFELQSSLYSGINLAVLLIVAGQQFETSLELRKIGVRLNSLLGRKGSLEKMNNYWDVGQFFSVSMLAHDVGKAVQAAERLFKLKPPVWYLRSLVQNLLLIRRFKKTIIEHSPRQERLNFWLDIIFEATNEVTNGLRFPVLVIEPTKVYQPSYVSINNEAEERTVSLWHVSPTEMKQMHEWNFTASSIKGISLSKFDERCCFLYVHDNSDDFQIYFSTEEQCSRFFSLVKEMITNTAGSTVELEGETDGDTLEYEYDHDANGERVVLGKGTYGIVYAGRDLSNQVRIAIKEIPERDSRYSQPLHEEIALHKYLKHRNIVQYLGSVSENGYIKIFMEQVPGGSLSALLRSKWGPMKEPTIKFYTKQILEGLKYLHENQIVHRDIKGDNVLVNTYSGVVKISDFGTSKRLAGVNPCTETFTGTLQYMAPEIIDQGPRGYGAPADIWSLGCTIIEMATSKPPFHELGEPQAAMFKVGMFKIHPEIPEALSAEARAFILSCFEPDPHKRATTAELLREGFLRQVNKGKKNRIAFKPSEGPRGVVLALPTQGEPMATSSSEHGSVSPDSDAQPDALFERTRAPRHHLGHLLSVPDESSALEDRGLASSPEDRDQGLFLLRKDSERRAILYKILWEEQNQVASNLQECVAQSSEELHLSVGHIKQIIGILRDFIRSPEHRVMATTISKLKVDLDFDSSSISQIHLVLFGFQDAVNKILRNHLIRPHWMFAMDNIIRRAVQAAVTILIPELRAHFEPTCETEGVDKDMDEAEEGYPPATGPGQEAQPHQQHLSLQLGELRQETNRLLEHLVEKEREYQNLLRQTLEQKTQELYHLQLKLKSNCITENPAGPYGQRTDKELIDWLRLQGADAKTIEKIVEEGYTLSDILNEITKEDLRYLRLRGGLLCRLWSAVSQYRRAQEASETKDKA

[4] = molecular target: Gastrin/cholecystokinin type B receptor (Homo sapiens, UniProt P32239); assay: Selectivity interaction (Cholecystokinin B receptor binding assay, human recombinant ) EUB0000877a CCKBR
[5] = molecular target: Myosin light chain kinase, smooth muscle (Homo sapiens, UniProt Q15746); settings: at 10 µM
[6] = molecular target: T2, Mitogen-activated protein kinase kinase kinase 3 (Homo sapiens) (UniProt Q99759); assay: Selectivity interaction (ActivX KiNativ screen (kinase selectivity in THP-1 cell lysates)) EUB0000639a MAP3K3; format: subcellular; settings: lysate, at 0.01 µM
T2 sequence (whole entry): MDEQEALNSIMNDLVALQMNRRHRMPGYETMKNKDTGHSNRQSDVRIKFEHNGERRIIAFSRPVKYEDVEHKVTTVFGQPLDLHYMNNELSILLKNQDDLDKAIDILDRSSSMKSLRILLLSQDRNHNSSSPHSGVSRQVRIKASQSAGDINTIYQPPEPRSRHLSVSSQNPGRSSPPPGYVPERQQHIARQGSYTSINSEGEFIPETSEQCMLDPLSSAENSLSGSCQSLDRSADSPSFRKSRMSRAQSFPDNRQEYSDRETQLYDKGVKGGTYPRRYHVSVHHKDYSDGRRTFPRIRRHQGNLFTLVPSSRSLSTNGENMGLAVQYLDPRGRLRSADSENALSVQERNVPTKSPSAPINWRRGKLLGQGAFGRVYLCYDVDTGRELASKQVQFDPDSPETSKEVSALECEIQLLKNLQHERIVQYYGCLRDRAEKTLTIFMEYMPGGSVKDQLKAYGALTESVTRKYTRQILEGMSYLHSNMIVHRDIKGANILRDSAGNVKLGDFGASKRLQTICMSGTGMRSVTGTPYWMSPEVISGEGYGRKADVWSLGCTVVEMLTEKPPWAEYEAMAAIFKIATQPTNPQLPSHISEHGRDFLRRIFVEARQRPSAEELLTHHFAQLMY

Insulin receptor = Insulin receptor (Homo sapiens, UniProt P06213); assay: Selectivity interaction (SelectScreen profiling (Invitrogen)) EUB0000607a INSR; settings: at 2 µM
[7] = molecular target: Mitogen-activated protein kinase 9 (Homo sapiens, UniProt P45984); assay: Selectivity interaction (Ambit KINOMEscan and KiNATiv profiling in Jurkat cells) EUB0000090b MAPK9; format: cell-based; settings: at 1 µM
Sequence of Mitogen-activated protein kinase 9 (P45984 whole entry, looked up): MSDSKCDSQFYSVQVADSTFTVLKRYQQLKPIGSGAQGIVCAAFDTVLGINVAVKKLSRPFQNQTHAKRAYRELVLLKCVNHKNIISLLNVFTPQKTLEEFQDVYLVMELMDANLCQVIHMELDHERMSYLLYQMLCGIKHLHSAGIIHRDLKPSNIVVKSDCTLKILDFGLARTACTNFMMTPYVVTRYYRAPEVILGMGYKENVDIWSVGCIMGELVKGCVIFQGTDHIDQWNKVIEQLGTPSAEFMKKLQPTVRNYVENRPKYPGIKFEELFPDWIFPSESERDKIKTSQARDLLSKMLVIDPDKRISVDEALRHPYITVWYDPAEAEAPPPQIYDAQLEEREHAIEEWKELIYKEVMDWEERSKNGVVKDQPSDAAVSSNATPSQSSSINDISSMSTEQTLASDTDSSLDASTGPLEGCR

[8] = molecular target: MAP kinase-activated protein kinase 3 (Homo sapiens) (UniProt Q16644); assay: Selectivity interaction (Kinase screening (Nanosyn)) EUB0000604a MAPKAPK3
Sequence of MAP kinase-activated protein kinase 3 (Homo sapiens) (Q16644 whole entry, looked up): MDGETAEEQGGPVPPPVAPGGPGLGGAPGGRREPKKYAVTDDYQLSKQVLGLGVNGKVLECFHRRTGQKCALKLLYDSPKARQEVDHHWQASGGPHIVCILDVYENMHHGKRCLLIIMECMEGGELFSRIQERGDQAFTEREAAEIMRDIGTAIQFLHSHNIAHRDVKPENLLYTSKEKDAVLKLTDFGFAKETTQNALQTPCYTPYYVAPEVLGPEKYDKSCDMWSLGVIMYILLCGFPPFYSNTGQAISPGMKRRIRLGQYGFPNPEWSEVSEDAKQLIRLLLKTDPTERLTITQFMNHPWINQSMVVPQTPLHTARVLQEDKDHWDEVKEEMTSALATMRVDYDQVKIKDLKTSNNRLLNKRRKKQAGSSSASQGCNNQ

[9] = molecular target: Mitotic checkpoint serine/threonine-protein kinase BUB1 (Homo sapiens, UniProt O43683); assay: Selectivity interaction (KinomeScan (DiscoverX)) EUB0001619a BUB1; settings: at 1 µM
Sequence of Mitotic checkpoint serine/threonine-protein kinase BUB1 (O43683 whole entry, looked up): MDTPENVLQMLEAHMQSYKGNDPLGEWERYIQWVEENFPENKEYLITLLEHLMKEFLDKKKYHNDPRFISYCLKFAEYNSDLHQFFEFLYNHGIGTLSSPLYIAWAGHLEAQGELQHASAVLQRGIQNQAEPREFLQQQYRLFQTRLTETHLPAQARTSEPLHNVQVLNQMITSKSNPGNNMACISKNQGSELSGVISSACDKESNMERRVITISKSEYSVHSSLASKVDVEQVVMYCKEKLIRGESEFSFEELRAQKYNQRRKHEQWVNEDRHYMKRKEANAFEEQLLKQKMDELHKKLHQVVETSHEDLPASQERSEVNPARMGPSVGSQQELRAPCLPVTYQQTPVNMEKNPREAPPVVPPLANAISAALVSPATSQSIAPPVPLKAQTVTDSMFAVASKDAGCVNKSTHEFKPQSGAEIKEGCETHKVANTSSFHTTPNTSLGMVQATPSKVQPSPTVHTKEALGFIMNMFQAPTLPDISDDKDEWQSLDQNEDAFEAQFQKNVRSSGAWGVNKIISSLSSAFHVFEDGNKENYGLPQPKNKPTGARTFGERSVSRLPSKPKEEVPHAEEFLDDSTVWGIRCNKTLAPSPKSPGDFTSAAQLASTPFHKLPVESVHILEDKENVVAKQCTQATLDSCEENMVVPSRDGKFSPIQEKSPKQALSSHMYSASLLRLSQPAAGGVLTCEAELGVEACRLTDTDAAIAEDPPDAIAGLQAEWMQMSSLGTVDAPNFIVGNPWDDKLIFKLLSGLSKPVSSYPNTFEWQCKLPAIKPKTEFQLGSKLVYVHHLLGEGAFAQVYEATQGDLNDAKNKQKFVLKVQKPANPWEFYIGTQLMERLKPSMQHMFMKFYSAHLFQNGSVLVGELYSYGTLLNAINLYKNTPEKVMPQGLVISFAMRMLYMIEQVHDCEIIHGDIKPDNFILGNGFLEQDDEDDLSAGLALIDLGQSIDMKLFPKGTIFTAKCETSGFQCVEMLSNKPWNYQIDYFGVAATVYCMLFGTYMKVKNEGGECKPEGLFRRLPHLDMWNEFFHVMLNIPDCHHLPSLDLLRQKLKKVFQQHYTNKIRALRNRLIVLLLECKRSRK

Sequence of Mitogen-activated protein kinase kinase kinase 4 (Homo sapiens) (Q9Y6R4 whole entry): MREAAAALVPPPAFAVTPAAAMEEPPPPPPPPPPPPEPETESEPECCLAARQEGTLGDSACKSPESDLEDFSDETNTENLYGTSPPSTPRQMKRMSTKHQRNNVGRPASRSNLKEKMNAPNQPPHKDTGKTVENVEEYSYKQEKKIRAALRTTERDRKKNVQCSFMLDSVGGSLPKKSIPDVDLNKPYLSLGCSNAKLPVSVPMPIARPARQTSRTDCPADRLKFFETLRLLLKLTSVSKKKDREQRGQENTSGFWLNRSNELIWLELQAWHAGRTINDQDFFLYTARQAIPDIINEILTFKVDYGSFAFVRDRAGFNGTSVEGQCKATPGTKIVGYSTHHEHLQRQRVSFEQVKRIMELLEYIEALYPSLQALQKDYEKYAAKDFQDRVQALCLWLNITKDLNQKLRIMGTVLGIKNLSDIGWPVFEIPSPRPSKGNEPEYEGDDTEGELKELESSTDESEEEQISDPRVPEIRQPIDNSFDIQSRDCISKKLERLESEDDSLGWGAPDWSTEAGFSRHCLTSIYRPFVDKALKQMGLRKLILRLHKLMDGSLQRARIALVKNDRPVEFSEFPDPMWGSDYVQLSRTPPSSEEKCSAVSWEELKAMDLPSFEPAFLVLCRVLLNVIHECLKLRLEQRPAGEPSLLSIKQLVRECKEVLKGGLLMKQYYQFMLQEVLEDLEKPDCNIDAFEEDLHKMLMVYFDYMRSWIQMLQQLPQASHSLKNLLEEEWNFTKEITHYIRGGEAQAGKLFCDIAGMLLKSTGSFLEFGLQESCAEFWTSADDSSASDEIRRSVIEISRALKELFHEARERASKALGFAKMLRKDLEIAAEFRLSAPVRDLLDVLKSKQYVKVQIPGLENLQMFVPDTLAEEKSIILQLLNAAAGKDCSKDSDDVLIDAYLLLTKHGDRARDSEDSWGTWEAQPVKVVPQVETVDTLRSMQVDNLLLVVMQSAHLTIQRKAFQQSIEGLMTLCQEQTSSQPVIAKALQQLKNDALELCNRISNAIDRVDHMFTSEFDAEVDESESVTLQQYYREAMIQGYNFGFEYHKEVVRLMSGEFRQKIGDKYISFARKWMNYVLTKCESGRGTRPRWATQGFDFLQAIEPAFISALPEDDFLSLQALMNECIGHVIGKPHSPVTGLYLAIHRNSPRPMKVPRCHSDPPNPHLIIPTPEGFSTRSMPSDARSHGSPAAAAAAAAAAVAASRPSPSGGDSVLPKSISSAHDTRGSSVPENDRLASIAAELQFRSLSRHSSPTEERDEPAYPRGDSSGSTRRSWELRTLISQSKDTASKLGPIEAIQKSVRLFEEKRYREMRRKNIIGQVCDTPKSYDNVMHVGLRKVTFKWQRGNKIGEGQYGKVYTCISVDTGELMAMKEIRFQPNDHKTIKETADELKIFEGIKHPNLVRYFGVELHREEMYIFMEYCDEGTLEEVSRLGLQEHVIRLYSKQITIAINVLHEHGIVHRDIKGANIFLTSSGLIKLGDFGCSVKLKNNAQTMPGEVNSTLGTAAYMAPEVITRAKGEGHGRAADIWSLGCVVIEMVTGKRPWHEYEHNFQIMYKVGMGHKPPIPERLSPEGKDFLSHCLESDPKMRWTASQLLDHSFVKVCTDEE
Sequence of Tyrosine-protein kinase ABL2 (P42684 whole entry): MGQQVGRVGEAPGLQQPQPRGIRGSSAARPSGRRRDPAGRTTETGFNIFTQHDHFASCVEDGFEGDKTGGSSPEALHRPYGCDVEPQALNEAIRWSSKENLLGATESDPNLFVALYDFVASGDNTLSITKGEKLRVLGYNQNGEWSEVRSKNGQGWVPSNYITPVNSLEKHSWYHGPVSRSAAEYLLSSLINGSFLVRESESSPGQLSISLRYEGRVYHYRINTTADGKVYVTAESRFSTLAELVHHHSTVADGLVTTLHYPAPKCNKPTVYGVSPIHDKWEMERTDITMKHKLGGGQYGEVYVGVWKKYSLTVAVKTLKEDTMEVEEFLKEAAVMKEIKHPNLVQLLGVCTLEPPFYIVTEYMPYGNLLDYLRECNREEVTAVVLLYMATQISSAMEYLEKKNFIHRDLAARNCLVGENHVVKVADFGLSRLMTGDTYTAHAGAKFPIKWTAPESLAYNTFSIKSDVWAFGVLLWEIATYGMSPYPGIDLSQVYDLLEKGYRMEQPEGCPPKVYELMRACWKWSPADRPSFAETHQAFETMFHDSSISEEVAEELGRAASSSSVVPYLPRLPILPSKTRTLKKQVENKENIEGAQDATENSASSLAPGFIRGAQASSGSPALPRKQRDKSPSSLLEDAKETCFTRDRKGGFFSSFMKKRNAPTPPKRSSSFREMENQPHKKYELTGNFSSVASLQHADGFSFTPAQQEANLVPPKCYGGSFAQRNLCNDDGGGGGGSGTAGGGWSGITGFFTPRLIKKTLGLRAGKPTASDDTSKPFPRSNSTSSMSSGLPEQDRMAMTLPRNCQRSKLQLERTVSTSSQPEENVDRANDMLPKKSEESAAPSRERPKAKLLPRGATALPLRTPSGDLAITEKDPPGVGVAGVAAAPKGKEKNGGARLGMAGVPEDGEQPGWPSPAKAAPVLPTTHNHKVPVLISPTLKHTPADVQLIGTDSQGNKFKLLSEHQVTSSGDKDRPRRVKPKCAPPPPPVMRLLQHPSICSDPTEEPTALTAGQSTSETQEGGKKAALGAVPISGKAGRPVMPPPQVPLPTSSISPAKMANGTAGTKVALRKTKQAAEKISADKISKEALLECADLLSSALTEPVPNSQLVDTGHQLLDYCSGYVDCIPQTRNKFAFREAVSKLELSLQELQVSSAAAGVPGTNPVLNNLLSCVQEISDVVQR

Compound: CCN(CC)CCCCNc1ncc2cc(-c3cc(OC)cc(OC)c3)c(NC(=O)NC(C)(C)C)nc2n1
- % of control [1]: 100%

Compound: COc1cc(N(C)c2ccnc3ccc(C(F)(F)F)cc23)cc(OC)c1OC
- % binding [2]: 100%

Compound: Nc1cnc(N2CCc3cc(S(=O)(=O)Nc4c(F)cc(Cl)cc4F)cc(N4CCCC4=O)c32)nc1 [TP-020n]
- % of control [3]: 100%

Compound: CCC(=O)N1CC[C@H](Nc2ncnc3c2CN(c2cnc(OC)c(C(F)(F)F)c2)CC3)C1 [LENIOLISIB]
- IC50 [4]: > 30 µM

Compound: Cc1cc([C@@H](C)Nc2ccccc2C(=O)O)c2nc(N3CCOCC3)cc(=O)n2c1 [AZD-6482]
- % of control [5]: 70%

Compound: CC[C@@H]1[C@H](F)C(=O)N[C@@H]1COc1nccc2cc(C(N)=O)c(OC)cc12 [ZIMLOVISERTIB]
- % of inhibition [6]: -6.1%

Compound: CNC(=O)Nc1ccc(-c2nc(N3CC4CCC(C3)O4)c3cnn(C4CCC5(CC4)OCCO5)c3n2)cc1
- % of inhibition (Insulin receptor): 4%

Compound: CN(C)C/C=C/C(=O)Nc1ccc(C(=O)N2CCCC(Nc3ncc(Cl)c(-c4c[nH]c5ccccc45)n3)C2)cc1 (stereo not given)
- % of control [7]: 0.55%

Compound: Cc1cnc(Nc2ccc(F)cc2Cl)nc1-c1c[nH]c(C(=O)N[C@H](CO)c2cccc(Cl)c2)c1
- % of inhibition [8]: 5%

Compound: N#Cc1cccc(-c2c[nH]c3ncnc(N4CCOCC4)c23)c1
- % of control [9]: 86%
